Experimental data from patent publication US10882867B2, “Forms and compositions of a MK2 inhibitor” (Celgene CAR LLC, priority 2017, dated 2021).
Converted amounts (≈) assume the structure as drawn.

Tests used:
Format in all cases: physicochemical
[1] = Approximate solubility of Compound 1 Form A at room temperature; settings: for solubility at 1 day: thermodynamic from solid
Description: Solubility of Form A was approximated in the following solvents: acetonitrile (ACN), ACN/water (1:1), n-butanol (n-BuOH), absolute ethanol (EtOH), ethanol/water (1:1), methanol (MeOH), 2-propanol (IPA), ethyl acetate (EtOAc), methyl acetate (MeOAc), dichloromethane (DCM), methyl ethyl ketone (MEK), methyl t-butyl ether (MTBE), heptane, toluene, methyl acetate (MeOAc), isopropyl acetate (IPAc), methyl isobutyl ketone (MIBK), 2-methyltetrahydrofuran (2-MeTHF), 1,4-dioxane, tetrahydrofuran (THF), THF/water (1:1), water, dimethyl sufoxide (DMSO), dimethylacetamide (DMA, DMAc), and N-methylpyrrolidone (NMP). A weighed sample of Form A (about 50 mg) was treated with a known volume of a test solvent. The resulting mixture was agitated for 1 day at room temperature. If all of the solids appeared to be dissolved by visual inspection, the estimated solubility was calculated based on the total volume of solvent used to give a complete solution. If solids were present, a known volume of filtrate was evaporated to dryness and the weight of the residue was measured to estimate the solubility.

[2] = Form conversion (form transfer) experiments: slurry, compression, heating, humidity cycle
Experimental: Form conversion experiments were performed to determine interconversion among solid forms.
The stability of Form A was further characterized by compression test and form transfer experiments (Table 6). Upon application of 2000-psi pressure for about 1 minute, the material was still Form A, with broader diffraction peaks (FIG. 42(c)).

[3] = Dynamic vapor sorption (DVS) hygroscopicity; settings: for DVS water uptake: between 0 and 90% RH, room temperature
Experimental: Hygroscopicity was determined on a Surface Measurement Systems DVS. A sample size of 5-20 mg was loaded into the DVS instrument sample pan and the sample was analyzed on a DVS automated sorption analyzer at room temperature. The relative humidity was increased from 0% to 90% RH at 10% RH step, then decreased in a similar manner to accomplish a full adsorption/desorption cycle. FIGS. 29-33 depict the DVS isotherm plots of Forms A, C, D, E, and I.

SMILES: CCOCc1cnc(Cl)nc1Oc1ccc2c(ccc3sc4c(c32)NC[C@@H](C)NC4=O)n1 [Form A, (R)-3-((2-chloro-5-(ethoxymethyl)pyrimidin-4-yl)oxy)-10-methyl-9,10,11,12-tetrahydro-8H-[1,4]diazepino[5′,6′:4,5]thieno[3,2-f]quinolin-8-one]
- solubility at 1 day ([1]; 2-MeTHF (2-methyltetrahydrofuran), organic solvent or mixture, 2-MeTHF, 1 day): < 2000 µg/mL
- solubility at 1 day ([1]; ACN (acetonitrile), organic solvent or mixture, ACN, 1 day): < 2000 µg/mL
- solubility at 1 day ([1]; ACN/water (1:1), aqueous with cosolvent or surfactant or cyclodextrin, ACN/water (1:1), 1 day): < 1000 µg/mL
- solubility at 1 day ([1]; DCM (dichloromethane), organic solvent or mixture, DCM, 1 day): 8000 to 16000 µg/mL (≈ 17 to 34 mM)
- Approximate Solubility ([1]; DCM, 1 day): <9000 µg/mL
- solubility at 1 day ([1]; DMA (dimethylacetamide), organic solvent or mixture, DMA, 1 day): > 50000 µg/mL
- Approximate Solubility ([1]; DMA, 1 day): >50000 µg/mL
- Approximate Solubility ([1]; DMSO, 1 day): >50000 µg/mL
- solubility at 1 day ([1]; DMSO, organic solvent or mixture, 1 day): > 50000 µg/mL
- solubility at 1 day ([1]; EtOAc (ethyl acetate), organic solvent or mixture, EtOAc, 1 day): < 1000 µg/mL
- solubility at 1 day ([1]; EtOH (absolute ethanol), organic solvent or mixture, EtOH, 1 day): < 2000 µg/mL
- solubility at 1 day ([1]; EtOH/water (1:1), aqueous with cosolvent or surfactant or cyclodextrin, EtOH/water (1:1), 1 day): < 1000 µg/mL
- solubility at 1 day ([1]; IPA (2-propanol), organic solvent or mixture, IPA, 1 day): < 1000 µg/mL
- solubility at 1 day ([1]; IPAc (isopropyl acetate), organic solvent or mixture, IPAc, 1 day): < 1000 µg/mL
- solubility at 1 day ([1]; MEK (methyl ethyl ketone), organic solvent or mixture, MEK, 1 day): > 2000 µg/mL
- Approximate Solubility ([1]; MEK, 1 day): <3000 µg/mL
- solubility at 1 day ([1]; MIBK (methyl isobutyl ketone), organic solvent or mixture, MIBK, 1 day): < 1000 µg/mL
- solubility at 1 day ([1]; MTBE (methyl t-butyl ether), organic solvent or mixture, MTBE, 1 day): < 1000 µg/mL
- solubility at 1 day ([1]; MeOAc (methyl acetate), organic solvent or mixture, MeOAc, 1 day): < 2000 µg/mL
- solubility at 1 day ([1]; MeOH (methanol), organic solvent or mixture, MeOH, 1 day): < 3000 µg/mL
- solubility at 1 day ([1]; NMP (N-methylpyrrolidone), organic solvent or mixture, NMP, 1 day): > 50000 µg/mL
- Approximate Solubility ([1]; NMP, 1 day): >50000 µg/mL
- solubility at 1 day ([1]; THF (tetrahydrofuran), organic solvent or mixture, THF, 1 day): 8000 to 16000 µg/mL (≈ 17 to 34 mM)
- Approximate Solubility ([1]; THF, 1 day): <10000 µg/mL
- Approximate Solubility ([1]; THF/water (1:1), 1 day): <16000 µg/mL
- solubility at 1 day ([1]; THF/water (1:1), aqueous with cosolvent or surfactant or cyclodextrin, THF/water (1:1), 1 day): 8000 to 16000 µg/mL (≈ 17 to 34 mM)
- Approximate Solubility ([1]; acetone, 1 day): <3000 µg/mL
- solubility at 1 day ([1]; acetone, organic solvent or mixture, 1 day): > 2000 µg/mL
- solubility at 1 day ([1]; heptane, organic solvent or mixture, 1 day): < 1000 µg/mL
- solubility at 1 day ([1]; n-BuOH (n-butanol), organic solvent or mixture, n-BuOH, 1 day): < 1000 µg/mL
- solubility at 1 day ([1]; organic solvent or mixture, all other solvents tested (not DMSO, DMA, NMP, THF/water, THF, DCM, acetone, 1,4-dioxane, MEK)): < 3000 µg/mL
- solubility at 1 day ([1]; toluene, organic solvent or mixture, 1 day): < 1000 µg/mL
- solubility at 1 day ([1]; water, 1 day): < 1000 µg/mL
- Resulting Form(s) ([2]; 0-90-0% RH cycle in DVS, 25° C.): No form change
- Resulting Form(s) ([2]; compression, 2000 psi, RT, 1 min): still Form A
- Resulting Form(s) ([2]; heating in KF oven, 190° C., ~10 min): confirmed to be Form A
- Hygroscopicity ([3]; DVS, 0 to 90% RH): slightly hygroscopic
- DVS water uptake [3]: about 2.5 wt %
- DVS water uptake ([3]; listed as A): DVS: ~2.5 wt % water
